The SangsterLogP compilation

How the values were obtained:
[1] = method code SF, from PMID: 10544519

| Structure (SMILES) | logP | logP [1] |
| --- | --- | --- |
| CCOc1ccc(NC(=O)Cn2c(C)nc3ccccc3c2=O)cc1 | 2.19 |  |
| Cc1cc(C)nc(NS(=O)(=O)c2ccc(NC(=O)Cn3c(C)nc4ccccc4c3=O)cc2)n1 | 0.7 |  |
| Cc1nc2ccccc2c(=O)n1CC(=O)NCc1ccccc1 | 1.78 |  |
| Cc1nc2ccccc2c(=O)n1CC(=O)Nc1ccc(S(=O)(=O)NC(=N)N)cc1 | 0.09 |  |
| CCOC(=O)c1nc2ccccc2c(=O)[nH]1 | 0.64 |  |
| Cc1nc2ccccc2c(=O)n1CC(=O)Nc1c(C)n(C)n(-c2ccccc2)c1=O | 1.07 |  |
| COC(=O)c1cc(NC(=O)Cn2c(C)nc3ccccc3c2=O)cc(C(=O)OC)c1 | 2.98 |  |
| Cc1nc2ccccc2c(=O)n1CC(=O)NNc1ccccc1 | 1.34 |  |
| COC(=O)c1ccc(C(=O)OC)c(NC(=O)Cn2c(C)nc3ccccc3c2=O)c1 | 3.53 |  |

The remaining lines, values ahead:

| logP | logP [1] | Structure (SMILES) |
| --- | --- | --- |
|  | 1.46 | COC(=O)Cn1c(C)nc2ccccc2c1=O |
|  | 0.64 | Cc1nc2ccccc2c(=O)n1CCC(=O)O |
| 1.14 |  | CCN(CC)C(=O)Cn1c(C)nc2ccccc2c1=O |
| 0.45 |  | Cc1nc2ccccc2c(=O)n1CC(=O)N1CCOCC1 |
|  | 0.08 | Cc1nc2ccccc2c(=O)n1CC(=O)O |
| 0.44 |  | COC(=O)CNC(=O)Cn1c(C)nc2ccccc2c1=O |
| 1.42 |  | Cc1nc2ccccc2c(=O)n1CC(=O)N1CCCCC1 |
| 1.24 |  | Cc1nc2ccccc2c(=O)n1CC(=O)NCc1ccco1 |
